Results taken from patent publication US9232796B2, “Herbicidal compositions comprising 4-amino-3-chloro-5-fluoro-6-(4-chloro-2-fluoro-3-methoxyphenyl) pyridine-2-carboxylic acid or a derivative thereof and acetyl-CoA carboxylase (ACCase) inhibitors” (DOW AGROSCIENCES LLC, priority 2012, dated 2016).

Assays:
LOLMU = experiment: Example IV postemergence foliar-applied, greenhouse, cereal crops weeds; assay type: in vivo, Lolium multiflorum Lam.
Procedure: (§1) Seeds of the desired test plant species were planted in Sun Gro MetroMix® 306 planting mixture, which typically has a pH of 6.0 to 6.8 and an organic matter content of about 30 percent, in plastic pots with a surface area of 103.2 square centimeters (cm^2). When required to ensure good germination and healthy plants, a fungicide treatment and/or other chemical or physical treatment was applied. The plants were grown for 7-36 days in a greenhouse with an approximate 14 hour photoperiod which was maintained at about 18° C. during the day and about 17° C. during the night. Nutrients and water were added on a regular basis and supplemental lighting was provided with overhead metal halide 1000-Watt lamps as necessary. The plants were employed for testing when they reached the second or third true leaf stage.
(§2) Treatments consisted of the benzyl ester of 4-amino-3-chloro-5-fluoro-6-(4-chloro-2-fluoro-3-methoxy-phenyl)pyridine-2-carboxylic acid (Compound A), formulated as an SC, a second cereal herbicide alone and then both in combination.
(§3) Other herbicidal components were applied on an active ingredient basis and included acetyl-CoA carboxylase (ACCase)-inhibiting herbicides clodinafop-propargyl, fenoxaprop-P-ethyl, pinoxaden and tralkoxydim.
(§4) Measured aliquots of benzyl ester of 4-amino-3-chloro-5-fluoro-6-(4-chloro-2-fluoro-3-methoxy-phenyl)pyridine-2-carboxylic acid (Compound A) were placed in 25 milliliter (mL) glass vials and diluted in a volume of 1.25% (v/v) Agri-Dex® crop oil concentrate to obtain stock solutions. Compound requirements are based upon a 12 mL application volume at a rate of 187 liters per hectare (L/ha). Spray solutions of the second cereal herbicide and experimental compound mixtures were prepared by adding the stock solutions to the appropriate amount of dilution solution to form 12 mL spray solution with active ingredients in two- and three-way combinations. Formulated compounds were applied to the plant material with an overhead Mandel track sprayer equipped with an 8002E nozzle calibrated to deliver 187 L/ha over an application area of 0.503 square meters (m^2) at a spray height of 18 inches (46 cm) above average plant canopy. Control plants were sprayed in the same manner with the solvent blank.
(§5) The treated plants and control plants were placed in a greenhouse as described above and watered by sub-irrigation to prevent wash-off of the test compounds. After 20-22 days, the condition of the test plants as compared with that of the control plants was determined visually and scored on a scale of 0 to 100 percent where 0 corresponds to no injury and 100 corresponds to complete kill.
(§6) Colby's equation was used to determine the herbicidal effects expected from the mixtures (Colby, S. R. 1967. Calculation of the synergistic and antagonistic response of herbicide combinations. Weeds 15:20-22.).
(§7) The following equation was used to calculate the expected activity of mixtures containing two active ingredients, A and B: Expected=A+B−(A×B/100)

PHAMI = experiment: as above; assay type: in vivo, Phalaris minor Retz.
Procedure: as §1, with “When required to ensure good germination and healthy plants, a fungicide treatment and/or other chemical or physical treatment was applied.” left out
as §2, §3
as §4, with “Spray solutions of the second cereal herbicide and experimental compound mixtures were prepared by adding the stock solutions to the appropriate amount of dilution solution to form 12 mL spray solution with active ingredients in two- and three-way combinations.” left out
as §5, §6, §7

[1] = Compound A Benzyl Ester 5 gai/ha
[2] = Compound A Benzyl Ester 10 gai/ha

COc1c(Cl)ccc(-c2nc(C(=O)OCc3ccccc3)c(Cl)c(N)c2F)c1F [Compound A Benzyl Ester, benzyl ester of 4-amino-3-chloro-5-fluoro-6-(4-chloro-2-fluoro-3-methoxy-phenyl)pyridine-2-carboxylic acid]
0%: Visual Weed Control (%) - 21 DAA LOLMU Obs (LOLMU; [1]) | Visual Weed Control (%) - 21 DAA LOLMU Obs (LOLMU; [2]) | Visual Weed Control (%) - 21 DAA PHAMI Obs (PHAMI; [1]) | Visual Weed Control (%) - 21 DAA PHAMI Obs (PHAMI; [2])
